Experimental data reported in US20060069132A1, “Azolecarboxamide herbicides” (priority 2004, published 2006).

Tests used:
morningglory = assay: Test B pre-/postemergence herbicide test; format: in vivo, Ipomoea coccinea
Procedure, shortened: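 Flooded paddy rice and barnyardgrass were treated at the 2-leaf stage; upland plantings received compound either on sown seed or on 1- to 4-leaf seedlings. All were kept 13–15 days in a greenhouse and scored visually, 0–100, relative to untreated plants.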

lambsquarters = assay: Test B pre-/postemergence herbicide test; format: in vivo, Chenopodium album
Procedure, shortened: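 Response was scored visually 13 to 15 days after treatment against untreated greenhouse controls, 0 meaning no effect and 100 complete control. Formulations (solvent mixture plus surfactant) went onto soil after planting, onto foliage of 1- to 4-leaf plants, and onto 2-leaf plants in a flooded paddy set including rice and barnyardgrass.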

kochia = assay: Test C pre-/postemergence herbicide test; format: in vivo, Kochia scoparia; conditions: preemergence
Procedure, shortened: (§1)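 Visual ratings on a 0–100 scale (100 = complete control) made versus untreated controls after 12 to 14 greenhouse days. Test chemicals, formulated in surfactant-containing non-phytotoxic solvent, applied preemergence to planted seeds or postemergence to 1- to 4-leaf plants (2 to 18 cm).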

soybean = assay: Test C pre-/postemergence herbicide test; format: in vivo, Glycine max; conditions: preemergence
Procedure, shortened: as §1

yellow nutsedge = assay: Test C pre-/postemergence herbicide test; format: in vivo, Cyperus esculentus; conditions: preemergence
Procedure, shortened: as §1

eastern black nightshade = assay: Test C pre-/postemergence herbicide test; format: in vivo, Solanum ptycanthum; conditions: preemergence
From the text: Seeds of plant species selected from bermudagrass (Cynodon dactylon (L.) Pers.), Surinam grass (Urochloa decumbens (Staph) R. D. Webster, previously named Brachiaria decumbens Stapf), cocklebur (Xanthium strumarium L.), corn (Zea mays L.), large crabgrass (Digitaria sanguinalis (L.) Scop.), woolly cupgrass (Eriochloa villosa (Thunb.) Kunth), giant foxtail (Setaria faberi Herrm.), goosegrass (Eleusine indica (L.) Gaertn.), johnsongrass (Sorghum halepense (L.) Pers.), kochia (Kochia scoparia (L.) Schrad.), lambsquarters (Chenopodium album L.), morningglory (Ipomoea coccinea L.), eastern black nightshade (Solanum ptycanthum Dunal), yellow nutsedge (Cyperus esculentus L.), pigweed (Amaranthus retroflexus L.), common ragweed (Ambrosia elatior L.), soybean (Glycine max (L.) Merr.), common (oilseed) sunflower (Helianthus annuus L.) and velvetleaf (Abutilon theophrasti Medik.) were planted and treated preemergence with test chemicals formulated in a non-phytotoxic solvent mixture which included a surfactant.
At the same time, plants selected from these crop and weed species and also winter barley (Hordeum vulgare L.), blackgrass (Alopecurus myosuroides Huds.), canarygrass (Phalaris minor Retz.), chickweed (Stellaria media (L.) Vill.), downy bromegrass (Bromus tectorum L.), green foxtail (Setaria viridis (L.) Beauv.), Italian ryegrass (Lolium multiflorum Lam.), wheat (Triticum aestivum L.), wild oat (Avenafatua L.) and windgrass (Apera spica-venti (L.) Beauv.) were treated with postemergence applications of some of the test chemicals formulated in the same manner. Plants ranged in height from 2 to 18 cm (1- to 4-leaf stage) for postemergence treatments. Plant species in the flooded paddy test consisted of rice (Oryza sativa), smallflower umbrella sedge (Cyperus difformis L.), ducksalad (Heteranthera limosa (Sw.) Willd.) and barnyardgrass (Echinochloa crus-galli (L.) Beauv.) grown to the 2-leaf stage for testing. Treated plants and controls were maintained in a greenhouse for 12 to 14 days, after which time all species were compared to controls and visually evaluated. Plant response ratings, summarized in Table C, are based on a scale of 0 to 100 where 0 is no effect and 100 is complete control. A dash (-) response means no test result.

cocklebur = assay: Test C pre-/postemergence herbicide test; format: in vivo, Xanthium strumarium; conditions: for Cocklebur plant response rating: Preemergence, scale 0 to 100, 0 no effect, 100 complete control
Procedure, shortened: as §1

[1] = 125 g ai/ha; 0 = no effect, 100 = complete control; preemergence
[2] = 125 g ai/ha; visual rating, scale 0 (no effect) to 100 (complete control); postemergence
[3] = 500 g ai/ha; visual rating, 0 = no effect, 100 = complete control; preemergence
[4] = postemergence, 500 g ai/ha; scale 0 to 100, 0 is no effect, 100 is complete control
[5] = 125 g ai/ha, scale 0 (no effect) to 100 (complete control), visual, 12 to 14 days
[6] = 500 g ai/ha, scale 0 to 100 (0 no effect, 100 complete control), visual, 12 to 14 days
[7] = 62 g ai/ha, preemergence, scale 0 to 100
[8] = 125 g ai/ha, scale 0 (no effect) to 100 (complete control), visual, 12 to 14 days, preemergence
[9] = 250 g ai/ha, scale 0-100, preemergence
[10] = 125 g ai/ha; 0 is no effect, 100 is complete control; preemergence
[11] = postemergence, 125 g ai/ha; visual rating, scale 0 (no effect) to 100 (complete control)

Structure (SMILES)	Morningglory plant response rating (0 to 100 scale) (morningglory; [1])	Morningglory plant response rating (morningglory; [2])	Plant response rating, Morningglory (morningglory; [3])	Morningglory plant response rating (morningglory; [4])	Lambsquarters plant response rating (0 to 100 scale) (lambsquarters; [1])	Lambsquarters plant response rating (lambsquarters; [2])	Plant response rating, Lambsquarters (lambsquarters; [3])	Lambsquarters plant response rating (lambsquarters; [4])	Plant response rating, Kochia (kochia; 62 g ai/ha, scale 0 to 100)	Plant response rating, Soybean (soybean; 62 g ai/ha, scale 0 to 100)	Plant response rating, Soybean (soybean; 250 g ai/ha, scale 0-100)	Plant response rating, Soybean (soybean; [6])	Plant response rating, Nutsedge, Yellow (yellow nutsedge; 62 g ai/ha, scale 0 to 100)	Plant response rating, Nutsedge, Yellow (yellow nutsedge; 250 g ai/ha, scale 0-100)	Plant response rating, Nutsedge, Yellow (yellow nutsedge; [6])	Plant response rating, Nightshade (eastern black nightshade; 62 g ai/ha, scale 0 to 100)	Plant response rating, Nightshade (eastern black nightshade; 250 g ai/ha, scale 0-100)	Plant response rating, Nightshade (eastern black nightshade; [6])	Plant response rating, Cocklebur (cocklebur; [7])	Plant response rating, Cocklebur (cocklebur; [9])	further results
CCN1N=C(C(C)(C)C)CC1C(=O)Nc1cc(C(=O)N2CCCC2)ccc1F (racemic) [Compound 309]	0	0	0	40	90	40	90	80	100	20	80	80	5	45	60	70	100	100	0	60	Plant response rating, Kochia (kochia; [5]): 100; Plant response rating, Kochia (kochia; 250 g ai/ha, scale 0-100): 100; Plant response rating, Kochia (kochia; [6]): 100; Plant response rating, Nutsedge, Yellow (yellow nutsedge; [5]): 30; Plant response rating, Nightshade (eastern black nightshade; [5]): 80; Plant response rating, Cocklebur (cocklebur; [8]): 10; Cocklebur plant response rating (cocklebur; 500 g ai/ha): 60
CCC1=NN(C(C)(C)C)CC1C(=O)Nc1cc(C(=O)N2CC=CC2)ccc1F (racemic) [Compound 340]		10		40		30	100	70	10	0	0	10	0	0	60	60	100	100	0	0	Plant response rating (0 to 100 scale), Morningglory (morningglory; [10]): 30; Plant response rating (0 to 100 scale), Lambsquarters (lambsquarters; [10]): 90; Plant response rating (0 = no effect, 100 = complete control), Kochia (kochia; 125 g ai/ha): 20; Plant response rating, Kochia (kochia; 250 g ai/ha, scale 0-100): 90; Plant response rating, Kochia (kochia; [6]): 100; Plant response rating (0 = no effect, 100 = complete control), Soybean (soybean; 125 g ai/ha): 0; Plant response rating (0 = no effect, 100 = complete control), Nutsedge, Yellow (yellow nutsedge; 125 g ai/ha): 0; Plant response rating (0 = no effect, 100 = complete control), Nightshade (eastern black nightshade; 125 g ai/ha): 90; Plant response rating (0 = no effect, 100 = complete control), Cocklebur (cocklebur; 125 g ai/ha, preemergence): 0; Plant response rating, Cocklebur (cocklebur; 500 g ai/ha, scale 0 to 100 (0 no effect, 100 complete control), visual, 12 to 14 days, preemergence): 40
CCn1nc(C(C)(C)C)cc1C(=O)Nc1cc(C(=O)N2CCCC2)ccc1F [Compound 242]	0		10	40	100		100	90		0	65	75	0	15	25	100	100	100	0	35	Morningglory plant response rating (morningglory; [11]): 20; Lambsquarters plant response rating (lambsquarters; [11]): 90; Plant response rating, Nutsedge, Yellow (yellow nutsedge; [5]): 0; Plant response rating, Nightshade (eastern black nightshade; [5]): 100; Plant response rating, Cocklebur (cocklebur; [8]): 0; Cocklebur plant response rating (cocklebur; 500 g ai/ha): 50
